Measured values as given in US20230103965A1, “NOVEL ACTIVATORS OF THE LIPIDATING TRANSPORTER ATP BINDING CASSETTE PROTEIN TYPE 1 (AB-CA1) AND THERAPEUTIC USES THEREOF” (RAMOT AT TEL-AVIV UNIVERSITY LTD., priority 2020, published 2023).
pKd: −log10 of the molar value.

How the values were obtained:
ECD1 of ABCA1 [1] = target: T1, ECD1 of ABCA1 (Homo sapiens, UniProt O95477); test: Microscale thermophoresis (MST) binding, label free protein; settings: unlabelled ECD1
T1 construct: The proteins used in these experiments were Extra-Cellular Domain 1 (ECD1) of ABCA1 and Extra-Cellular Domain 2 (ECD2); purchased Biomatick
T1 sequence (O95477 43-639 limits assumed): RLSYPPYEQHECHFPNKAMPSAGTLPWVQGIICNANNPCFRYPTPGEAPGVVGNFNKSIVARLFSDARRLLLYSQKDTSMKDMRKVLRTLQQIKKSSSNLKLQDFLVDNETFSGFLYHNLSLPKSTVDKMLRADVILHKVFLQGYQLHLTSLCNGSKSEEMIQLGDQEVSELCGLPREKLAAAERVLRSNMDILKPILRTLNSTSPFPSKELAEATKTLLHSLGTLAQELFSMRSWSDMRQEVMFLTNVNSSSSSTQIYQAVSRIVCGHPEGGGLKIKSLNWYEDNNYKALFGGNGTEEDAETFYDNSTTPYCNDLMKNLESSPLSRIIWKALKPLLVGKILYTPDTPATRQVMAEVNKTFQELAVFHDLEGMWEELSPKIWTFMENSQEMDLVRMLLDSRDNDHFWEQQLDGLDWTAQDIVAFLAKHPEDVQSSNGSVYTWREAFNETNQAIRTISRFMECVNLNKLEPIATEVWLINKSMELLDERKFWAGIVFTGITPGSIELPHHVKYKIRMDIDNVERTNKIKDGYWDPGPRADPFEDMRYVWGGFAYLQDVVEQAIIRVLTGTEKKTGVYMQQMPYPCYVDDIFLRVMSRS
Description: (§1) Microscale thermophoresis (MST) measurements. MST measurements of the binding of the HTS hits to the extracellular domain (ECD) of ABCA1 were performed by two complimentary methods utilizing either fluorescently labeled proteins or the endogenous fluorescence of unlabeled proteins. This was pursued as follows:
(§2) The experiments were performed with the purified extracellual domains 1 (ECD1) and 2 (ECD2) of ABCA1 [18]. Two complementary MST tests were performed, in which either the proteins were labeled with a fluorescence moiety or the endogenous fluorescence of the unlabeled proteins was monitored).

ECD1 of ABCA1 [2] = target: T1, ECD1 of ABCA1; test: Microscale thermophoresis (MST) binding, labelled protein
Description: as §1
The buffers of protein samples were exchanged on a desalting PD-10 column to MST labelling buffer (Nanotemper Technologies, NT.115). Each protein was labeled with Alexa Fluor 650 succinimidyl-ester (Thermo Fisher Scientific) in 3-fold excess and then incubated for 1 hr in the dark at room temperature. Excess dye was removed by PD-10 desalting columns. […] Protein-compound interactions were analyzed by microscale thermophoresis. […] Hits were prepared at the highest concentration soluble in MST buffer (Nanotemper)+10% DMSO. Next, hits were diluted by 2 in 16 consecutive tubes of 10 μl per tube. Then, 10 μl of the protein were added to each tube and centrifuged in 12,000 rpm for 10 minutes. Finally, the samples were loaded to the capillaries and were inserted to the MST machine. Experiments were performed on a microMonolith NT.115 Blue/Red (NanoTemper Technologies) in duplicates. Measurements were performed in standard glass capillaries (NanoTemper Technologies). […] All dissociation constants (KD) were calculated to a binding model assuming a 1:1 stoichiometry per binding partner.
as §2

ABCA1 [3] = target: T2, ABCA1 (Homo sapiens, UniProt O95477); test: Target recognition: binding to ABCA1 (summary of labelled and label free MST)
T2 construct: The proteins used in these experiments were Extra-Cellular Domain 1 (ECD1) of ABCA1 and Extra-Cellular Domain 2 (ECD2); purchased Biomatick
T2 sequence (O95477 43-639 limits assumed): T1 sequence (O95477 43-639 limits assumed)
Description: as §1, §2
A. HTS Screening and Target Recognition • 1.

ECD2 of ABCA1 = target: T3, ECD2 of ABCA1 (Homo sapiens, UniProt O95477); test: Microscale thermophoresis (MST) binding to ECD2
T3 construct: The proteins used in these experiments were Extra-Cellular Domain 1 (ECD1) of ABCA1 and Extra-Cellular Domain 2 (ECD2); purchased Biomatick
Description: as §1
(i) MST utilizing labeled proteins: The proteins used in these experiments were Extra-Cellular Domain 1 (ECD1) of ABCA1 and Extra-Cellular Domain 2 (ECD2) which were provided by the manufacturer (Biomatick) at a concentration of 7.1 μM. The buffers of protein samples were exchanged on a desalting PD-10 column to MST labelling buffer (Nanotemper Technologies, NT.115). […] The concentrations of the labeled protein samples solutions were determined by Spectrophotometer (Carey 60) at 280 nm and 650 nm and adjusted to a final concentration 7.1 μM, aliquoted in 30 μl and stored at −80° C. for further use. Protein-compound interactions were analyzed by microscale thermophoresis. […] All dissociation constants (KD) were calculated to a binding model assuming a 1:1 stoichiometry per binding partner. […]
These experiments employed the MST ligand binding to protein assay (FIG. 13 and EXAMPLE 1). […] Two complementary MST tests were performed, in which either the proteins were labeled with a fluorescence moiety or the endogenous fluorescence of the unlabeled proteins was monitored).

ABCA1 [4] = target: T4, ABCA1 (Homo sapiens, UniProt O95477); test: ABCA1 dependency of cholesterol efflux in BHK cells with inducible ABCA1; type: cell-based; settings: for ABCA1 dependency of the effect on cholesterol efflux: BHK cells, presence vs absence of ABCA1
T4 construct: expressed in transfected cells; host or cells: BHK (baby hamster kidney) cells, ABCA1 induced with mifepristone
Description: (§3) Mife=Mifepristone which induces the expression of ABCA1.
as §3
T4 sequence (O95477 whole entry, the tested form may be a part): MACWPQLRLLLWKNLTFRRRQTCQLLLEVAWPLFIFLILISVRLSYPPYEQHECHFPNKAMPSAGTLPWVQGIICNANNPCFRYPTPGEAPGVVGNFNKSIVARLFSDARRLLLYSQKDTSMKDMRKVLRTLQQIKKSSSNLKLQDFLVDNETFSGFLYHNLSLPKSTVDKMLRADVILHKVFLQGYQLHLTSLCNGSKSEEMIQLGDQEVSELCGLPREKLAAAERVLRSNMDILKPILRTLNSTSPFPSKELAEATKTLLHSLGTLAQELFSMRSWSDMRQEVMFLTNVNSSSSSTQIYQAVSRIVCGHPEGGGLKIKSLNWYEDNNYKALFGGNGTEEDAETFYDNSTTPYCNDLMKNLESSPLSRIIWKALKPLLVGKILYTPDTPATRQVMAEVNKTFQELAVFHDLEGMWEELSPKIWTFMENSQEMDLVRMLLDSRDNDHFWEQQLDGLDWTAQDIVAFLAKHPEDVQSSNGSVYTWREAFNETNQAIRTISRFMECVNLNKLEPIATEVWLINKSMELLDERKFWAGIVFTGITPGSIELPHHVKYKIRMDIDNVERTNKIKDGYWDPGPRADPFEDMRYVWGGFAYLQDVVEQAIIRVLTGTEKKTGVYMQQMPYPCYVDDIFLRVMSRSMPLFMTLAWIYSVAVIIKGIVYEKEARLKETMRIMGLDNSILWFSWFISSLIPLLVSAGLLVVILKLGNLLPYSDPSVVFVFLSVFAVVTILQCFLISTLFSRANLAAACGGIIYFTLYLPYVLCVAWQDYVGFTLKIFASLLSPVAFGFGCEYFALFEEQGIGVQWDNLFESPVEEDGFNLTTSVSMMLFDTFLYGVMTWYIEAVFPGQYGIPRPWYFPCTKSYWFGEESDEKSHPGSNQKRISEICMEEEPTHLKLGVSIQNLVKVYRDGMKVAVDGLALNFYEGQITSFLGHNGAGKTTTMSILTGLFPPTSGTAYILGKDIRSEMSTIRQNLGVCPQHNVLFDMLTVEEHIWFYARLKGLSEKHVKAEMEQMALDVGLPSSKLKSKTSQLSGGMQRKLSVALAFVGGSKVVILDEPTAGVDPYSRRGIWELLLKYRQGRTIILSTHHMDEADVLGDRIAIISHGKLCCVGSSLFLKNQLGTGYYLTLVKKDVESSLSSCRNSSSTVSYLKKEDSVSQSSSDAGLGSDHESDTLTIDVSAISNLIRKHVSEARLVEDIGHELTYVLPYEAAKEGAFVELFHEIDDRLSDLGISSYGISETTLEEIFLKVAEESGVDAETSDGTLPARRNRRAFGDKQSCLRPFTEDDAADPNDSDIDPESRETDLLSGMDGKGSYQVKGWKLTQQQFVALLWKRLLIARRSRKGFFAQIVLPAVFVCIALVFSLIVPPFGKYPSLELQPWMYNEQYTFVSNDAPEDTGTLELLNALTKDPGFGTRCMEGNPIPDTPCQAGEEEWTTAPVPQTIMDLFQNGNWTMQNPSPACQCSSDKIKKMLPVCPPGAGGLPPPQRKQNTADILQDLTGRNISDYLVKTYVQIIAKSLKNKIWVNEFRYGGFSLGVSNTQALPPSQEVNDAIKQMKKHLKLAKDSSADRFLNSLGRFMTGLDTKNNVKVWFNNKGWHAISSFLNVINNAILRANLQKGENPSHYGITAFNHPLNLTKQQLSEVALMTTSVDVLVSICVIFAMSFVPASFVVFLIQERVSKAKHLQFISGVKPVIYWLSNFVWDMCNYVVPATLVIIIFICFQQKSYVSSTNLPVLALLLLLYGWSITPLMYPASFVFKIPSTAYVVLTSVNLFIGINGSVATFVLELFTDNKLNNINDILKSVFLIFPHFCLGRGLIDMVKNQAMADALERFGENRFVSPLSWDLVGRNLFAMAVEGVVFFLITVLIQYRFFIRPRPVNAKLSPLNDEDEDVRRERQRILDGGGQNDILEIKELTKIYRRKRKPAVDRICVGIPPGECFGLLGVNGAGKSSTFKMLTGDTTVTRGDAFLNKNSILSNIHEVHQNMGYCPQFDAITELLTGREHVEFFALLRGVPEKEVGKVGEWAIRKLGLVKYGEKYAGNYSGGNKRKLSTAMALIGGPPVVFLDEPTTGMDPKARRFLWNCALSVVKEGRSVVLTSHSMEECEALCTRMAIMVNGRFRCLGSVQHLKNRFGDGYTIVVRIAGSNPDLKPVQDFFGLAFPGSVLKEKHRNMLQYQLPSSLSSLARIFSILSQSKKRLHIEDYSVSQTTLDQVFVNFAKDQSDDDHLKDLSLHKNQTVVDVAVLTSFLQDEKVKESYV
(iii) Assessment of the ABCA1 dependency of the effects of the hits on cholesterol efflux. These experiments investigated the extent to which ABCA1 is indeed the target of the hits. This was performed utilizing BHK (baby hamster kidney) cells with inducible expression of ABCA1 followed by determination of the effects for the presence and absence of ABCA1 on the translocation of cholesterol to apoE4.

T3 sequence (O95477 1372-1656 limits assumed): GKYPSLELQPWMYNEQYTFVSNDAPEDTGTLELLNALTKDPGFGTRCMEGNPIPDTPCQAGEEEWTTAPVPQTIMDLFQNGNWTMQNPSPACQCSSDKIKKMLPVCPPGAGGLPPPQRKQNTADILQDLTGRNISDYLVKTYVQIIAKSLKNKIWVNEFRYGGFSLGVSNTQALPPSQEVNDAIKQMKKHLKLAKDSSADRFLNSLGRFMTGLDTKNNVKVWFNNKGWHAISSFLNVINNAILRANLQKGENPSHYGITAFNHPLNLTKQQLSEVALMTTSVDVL

Structure (SMILES)	Binding to ECD1 (Label free MST) Amplitude (ECD1 of ABCA1 [1]) [a.u.]	pKd (ECD1 of ABCA1 [1])	Binding to ECD1 (Labelled MST) Amplitude (ECD1 of ABCA1 [2]) [a.u.]	pKd (ECD1 of ABCA1 [2])	MST binding to ECD1 (ABCA1 [3])	MST binding to ECD2 (ECD2 of ABCA1)	ABCA1 dependency of the effect on cholesterol efflux (ABCA1 [4])	Lipidation of apoE4 in the absence of ABCA1 (ABCA1 [4]; BHK cells not expressing ABCA1)	ABCA1 dependency BHK Cells (ABCA1 [4]; Table 2)	ABCA1 dependency BHK Cells (ABCA1 [4]; Table 4)	Cholesterol efflux from ABCA1 expressing BHK cells (ABCA1 [4]; BHK cells expressing ABCA1)
C[C@]12CC[C@@H](O)CC1CCC1C2CC[C@](C)(C(=O)O)C1/C=C1/Nc2ccccc2C1=O (some centres unmarked) [Hit #12]	90.25	3.50	9.05	4.96							
CC(C)(C)C(=O)COC(=O)c1ccccc1SCc1cc(-c2ccco2)on1 [Hit #4]	16.45	< 3.46	13.63	4.57	bind saturably to ECD1	do not bind at all	depend on the presence of ABCA1				
Cc1nn(CC(=O)c2ccc(Br)s2)c(C)c1[N+](=O)[O-] [Hit #3]	39.96	3.75	10.85	3.56	bind saturably to ECD1	do not bind at all	depend on the presence of ABCA1	did not stimulate any lipidation of apoE4			
O=[N+]([O-])c1ccc(N2CCCCC2)c2nonc12 [Hit #7]			22.05		scored positively				No activity	No activity	had no effect
CSC(SC)=C1CC/C(=C/c2ccc(N(C)C)cc2)C1=O [Hit #14]	0		0								
